# Patent US10414811B2, “Protease-resistant lipidated GLP-1 analogs” (MEDIMMUNE LIMITED, priority 2015, dated 2019)
# Where two headings read alike, the source gives them in different places. Numbered stars: 1 amine (or outer) side, 2 acyl side, 3 side chain; on linkers, the order of the positions; unused ones are H or OH. Square brackets hold non-standard residues; d marks the D form. Side chains are listed from the residue outwards. Peptide text beside a SMILES is read from it. * marks the point of attachment. C18 diacid = O=C(O)CCCCCCCCCCCCCCCCC(=O)*; γGlu = O=C(O)[C@H](CCC(=O)[*:2])N[*:1]; αMeF = C[C@](N)(Cc1ccccc1)C(=O)O; αMeS = C[C@](N)(CO)C(=O)O; AEEA = NCCOCCOCC(=O)O; Aib = CC(C)(N)C(=O)O
# What was measured:
# Type in all cases: cell-based
# [1] = molecular target: T1, human glucose-dependent insulinotropic peptide receptor (GIPR) (Homo sapiens, UniProt P48546); assay: cAMP assay, human GIPR cells
# T1 construct: expressed in transfected cells
# T1 sequence (P48546 22-466): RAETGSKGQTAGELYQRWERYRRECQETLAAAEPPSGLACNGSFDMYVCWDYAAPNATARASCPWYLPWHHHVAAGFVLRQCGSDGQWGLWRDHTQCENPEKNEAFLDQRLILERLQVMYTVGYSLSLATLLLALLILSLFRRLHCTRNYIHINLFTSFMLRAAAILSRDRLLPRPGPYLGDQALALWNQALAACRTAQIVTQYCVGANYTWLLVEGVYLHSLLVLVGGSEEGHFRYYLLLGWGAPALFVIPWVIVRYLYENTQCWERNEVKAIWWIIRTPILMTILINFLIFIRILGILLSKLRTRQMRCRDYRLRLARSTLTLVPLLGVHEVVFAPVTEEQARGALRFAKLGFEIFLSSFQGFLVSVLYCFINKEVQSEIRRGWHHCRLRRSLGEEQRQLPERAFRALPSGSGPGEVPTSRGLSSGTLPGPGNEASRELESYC
# Procedure, shortened: (§1)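 Peptide-stimulated cAMP measured by two-step HTRF after a 30 min room-temperature incubation with receptor-expressing cells (hGLP-1R, hGIPR at 1×10^5 cells/ml; hGCGR at 2×10^5 cells/ml). Duplicate dilutions; EC50 from 4-parameter logistic fit of % Delta F.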
# GLP-1R (INS1e assay) = molecular target: T2, GLP-1R (INS1e assay) (Rattus norvegicus, UniProt P32301); assay: INS1e assay, cAMP activity at GLP-1R; conditions: mono-lipidated peptides
# T2 construct: endogenous in cells; host or cells: INS-1E cells
# T2 sequence (P32301 22-463): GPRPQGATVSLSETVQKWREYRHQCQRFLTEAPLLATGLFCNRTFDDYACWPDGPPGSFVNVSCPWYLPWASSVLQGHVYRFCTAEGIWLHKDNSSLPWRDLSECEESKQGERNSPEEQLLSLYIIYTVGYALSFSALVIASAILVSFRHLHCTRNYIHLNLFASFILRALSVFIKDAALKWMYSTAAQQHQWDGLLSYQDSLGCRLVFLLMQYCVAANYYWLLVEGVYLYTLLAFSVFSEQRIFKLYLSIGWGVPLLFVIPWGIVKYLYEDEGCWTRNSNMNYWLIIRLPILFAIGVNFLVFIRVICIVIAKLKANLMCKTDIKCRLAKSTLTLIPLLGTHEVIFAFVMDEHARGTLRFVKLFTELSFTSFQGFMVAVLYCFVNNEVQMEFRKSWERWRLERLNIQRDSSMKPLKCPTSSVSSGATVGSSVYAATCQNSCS
# Procedure, shortened: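 It pairs cAMP-d2 acceptor with anti-cAMP cryptate donor, both prepared 1/20 in conjugate/lysis buffer, applied as a two-step protocol.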
# [2] = molecular target: T3, human GLP-1 receptor (GLP-1R) (Homo sapiens, UniProt P43220); assay: cAMP assay, human GLP-1R cells
# T3 construct: expressed in transfected cells
# T3 sequence (P43220 24-463): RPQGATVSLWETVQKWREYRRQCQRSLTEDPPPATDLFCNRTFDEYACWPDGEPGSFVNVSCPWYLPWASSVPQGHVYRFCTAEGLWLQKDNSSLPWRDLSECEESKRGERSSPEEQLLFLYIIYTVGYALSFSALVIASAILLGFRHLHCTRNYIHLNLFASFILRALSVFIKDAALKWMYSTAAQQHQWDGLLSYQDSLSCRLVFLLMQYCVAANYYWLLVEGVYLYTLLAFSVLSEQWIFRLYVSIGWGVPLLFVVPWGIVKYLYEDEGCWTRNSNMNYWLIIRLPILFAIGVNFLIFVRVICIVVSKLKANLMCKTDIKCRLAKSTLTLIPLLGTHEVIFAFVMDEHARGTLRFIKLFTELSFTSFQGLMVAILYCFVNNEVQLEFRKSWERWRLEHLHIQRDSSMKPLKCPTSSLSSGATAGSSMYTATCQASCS
# Procedure, shortened: as §1
# [3] = molecular target: T4, human glucagon receptor (GCGR) (Homo sapiens, UniProt P47871); assay: cAMP assay, human GCGR cells
# T4 construct: expressed in transfected cells
# T4 sequence (P47871 26-477): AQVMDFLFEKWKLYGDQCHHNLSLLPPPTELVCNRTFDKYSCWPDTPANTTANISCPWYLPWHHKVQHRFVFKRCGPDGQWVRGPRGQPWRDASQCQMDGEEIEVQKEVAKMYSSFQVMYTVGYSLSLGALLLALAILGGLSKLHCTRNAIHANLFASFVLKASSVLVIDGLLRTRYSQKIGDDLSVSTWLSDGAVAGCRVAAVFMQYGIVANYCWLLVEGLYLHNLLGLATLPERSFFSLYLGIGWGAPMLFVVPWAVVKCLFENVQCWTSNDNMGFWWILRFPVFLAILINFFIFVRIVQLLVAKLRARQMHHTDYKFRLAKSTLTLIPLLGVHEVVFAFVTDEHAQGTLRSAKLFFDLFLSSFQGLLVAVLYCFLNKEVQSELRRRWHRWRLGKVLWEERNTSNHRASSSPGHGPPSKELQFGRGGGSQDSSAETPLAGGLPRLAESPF
# Procedure, shortened: as §1
# [4] = first run (n1), cAMP activity, read-out: Primary assay EC50 GIP-R
# [5] = second run (n2), cAMP activity, read-out: Primary assay EC50 GIP-R
# [6] = mean of n1 and n2, read-out: INS1e assay EC50 Mean pM GLP-1R
# [7] = replicate n1, read-out: INS1e assay EC50 GLP-1R n1
# [8] = replicate n2, read-out: INS1e assay EC50 GLP-1R n2
# [9] = first run (n1), cAMP activity, read-out: Primary assay EC50 GLP-1R n1
# [10] = mean of n1 and n2, read-out: Mean pM GLP-1R
# [11] = second run (n2), cAMP activity, read-out: Primary assay EC50 GLP-1R n2
# [12] = first run (n1), cAMP activity of substituted and mono-lipidated peptides, read-out: Primary assay EC50 Gluc-R
# [13] = second run (n2), cAMP activity, read-out: Primary assay EC50 Gluc-R
# [14] = cAMP assay, first determination (n1), read-out: Primary assay EC50 GLP-1R n1
# [15] = cAMP assay, second determination (n2), read-out: Primary assay EC50 GLP-1R n2
# [16] = cAMP assay, first determination (n1), read-out: Primary assay EC50 GIP-R (n1)
# [17] = cAMP assay, second determination (n2), read-out: Primary assay EC50 GIP-R (n2)
# [18] = cAMP assay, first determination (n1), read-out: Primary assay EC50 Gluc-R (n1)
# [19] = cAMP assay, second determination (n2), read-out: Primary assay EC50 Gluc-R (n2)
SMILES,"EC50 [1, 4] [nM]","EC50 [1, 5] [nM]",EC50 (GLP-1R (INS1e assay); [6]) [pM],EC50 (GLP-1R (INS1e assay); [7]) [pM],EC50 (GLP-1R (INS1e assay); [8]) [pM],"EC50 [2, 9] [pM]","EC50 [2, 10] [pM]","EC50 [2, 11] [pM]","EC50 [3, 12] [nM]","EC50 [3, 13] [nM]","EC50 ([1]; Primary assay EC50 GIP-R (n1), cAMP assay, first determination (n1)) [nM]","EC50 ([1]; read-out: Primary assay EC50 GIP-R (n2), cAMP assay, second determination (n2)) [nM]","EC50 [2, 14] [pM]","EC50 [2, 15] [pM]","EC50 ([3]; Primary assay EC50 Gluc-R (n1), cAMP assay, first determination (n1)) [nM]","EC50 ([3]; read-out: Primary assay EC50 Gluc-R (n2), cAMP assay, second determination (n2)) [nM]","EC50 [1, 16] [nM]","EC50 [1, 17] [nM]","EC50 [3, 18] [nM]","EC50 [3, 19] [nM]"
CCCCCCCCCCCCCCCCCC(=O)NCCOCCOCC(=O)NCCOCCOCC(=O)NCCOCCOCC(=O)NCCCC[C@H](NC(=O)[C@@H](NC(=O)[C@@H](NC(=O)[C@](C)(Cc1ccccc1)NC(=O)[C@H](C)NC(=O)[C@@H](NC(=O)[C@](C)(Cc1ccccc1)NC(=O)[C@H](CCC(=O)O)NC(=O)[C@](C)(CCCCN)NC(=O)[C@H](C)NC(=O)[C@H](C)NC(=O)[C@H](CCC(=O)O)NC(=O)CNC(=O)[C@H](CCC(=O)O)NC(=O)[C@H](CC(C)C)NC(=O)[C@](C)(Cc1ccccc1)NC(=O)[C@H](CO)NC(=O)[C@](C)(CO)NC(=O)[C@@H](NC(=O)[C@H](CC(=O)O)NC(=O)[C@H](CO)NC(=O)[C@@H](NC(=O)[C@](C)(Cc1ccccc1)NC(=O)[C@H](CO)NC(=O)CNC(=O)[C@H](CCC(=O)O)NC(=O)C(C)(C)NC(=O)[C@@H](N)Cc1c[nH]cn1)[C@@H](C)O)C(C)C)[C@@H](C)CC)C(C)C)C(C)C)C(=O)NCC(=O)NCC(N)=O [compound 190],≥ 26,≥ 26,44.1,39.7,48.5,9.7,7.2,4.7,≥ 26,≥ 26,–,–,–,–,–,–,–,–,–,–
CC[C@H](C)[C@H](NC(=O)[C@](C)(Cc1ccccc1)NC(=O)[C@H](CCC(=O)O)NC(=O)[C@H](CCCCNC(=O)COCCOCCNC(=O)CCCCCCCCCCCOc1ccc(C(=O)O)cc1)NC(=O)[C@H](C)NC(=O)[C@H](C)NC(=O)[C@H](CCC(=O)O)NC(=O)CNC(=O)[C@H](CCC(=O)O)NC(=O)[C@H](CC(C)C)NC(=O)[C@](C)(Cc1ccccc1)NC(=O)[C@H](CO)NC(=O)[C@](C)(CO)NC(=O)[C@@H](NC(=O)[C@H](CC(=O)O)NC(=O)[C@H](CO)NC(=O)[C@@H](NC(=O)[C@](C)(Cc1ccccc1)NC(=O)[C@H](CO)NC(=O)CNC(=O)[C@H](CCC(=O)O)NC(=O)C(C)(C)NC(=O)[C@@H](N)Cc1c[nH]cn1)[C@@H](C)O)C(C)C)C(=O)N[C@@H](C)C(=O)N[C@@](C)(Cc1ccccc1)C(=O)N[C@H](C(=O)N[C@H](C(=O)N[C@@](C)(CCCCN)C(=O)NCC(=O)NCC(N)=O)C(C)C)C(C)C [compound 143],–,–,34,45.1,22.7,–,8.6,–,–,–,≥ 27,≥ 27,12,5.2,≥ 27,≥ 27,–,–,–,–
CC[C@H](C)[C@H](NC(=O)[C@H](Cc1ccccc1)NC(=O)[C@H](CCC(=O)O)NC(=O)C(C)(C)NC(=O)[C@H](C)NC(=O)[C@H](C)NC(=O)[C@H](CCC(=O)O)NC(=O)CNC(=O)[C@H](CCC(=O)O)NC(=O)[C@H](CC(C)C)NC(=O)[C@](C)(Cc1ccccc1)NC(=O)[C@H](CO)NC(=O)[C@](C)(CO)NC(=O)[C@@H](NC(=O)[C@H](CC(=O)O)NC(=O)[C@H](CO)NC(=O)[C@@H](NC(=O)[C@](C)(Cc1ccccc1)NC(=O)[C@H](CO)NC(=O)CNC(=O)[C@H](CCC(=O)O)NC(=O)C(C)(C)NC(=O)[C@@H](N)Cc1c[nH]cn1)[C@@H](C)O)C(C)C)C(=O)N[C@@H](CCCCNC(=O)COCCOCCNC(=O)COCCOCCNC(=O)CC[C@H](NC(=O)CCCCCCCCCCCCCCCCC(=O)O)C(=O)O)C(=O)N[C@@H](Cc1c[nH]c2ccccc12)C(=O)N[C@H](C(=O)N[C@H](C(=O)N[C@@H](CCC(=O)O)C(=O)NCC(=O)NCC(N)=O)C(C)C)C(C)C [compound 67] (H-H[Aib]EGS[αMeF]TSDV[αMeS]S[αMeF]LEGEAA[Aib]EFIK([AEEA-AEEA-γGlu-C18 diacid])WVVEGG-NH2; N-terminus assumed),–,–,12100,6150,18100,–,60.1,–,–,–,–,–,72.1,48,–,–,≥ 25.4,≥ 25.4,≥ 25.4,≥ 25.4
CC[C@H](C)[C@H](NC(=O)[C@](C)(Cc1ccccc1)NC(=O)[C@H](CCC(=O)O)NC(=O)[C@](C)(CCCCN)NC(=O)[C@H](C)NC(=O)[C@H](C)NC(=O)[C@H](CCC(=O)O)NC(=O)CNC(=O)[C@H](CCC(=O)O)NC(=O)[C@H](CC(C)C)NC(=O)[C@](C)(Cc1ccccc1)NC(=O)[C@H](CO)NC(=O)[C@](C)(CO)NC(=O)[C@@H](NC(=O)[C@H](CC(=O)O)NC(=O)[C@H](CO)NC(=O)[C@@H](NC(=O)[C@](C)(Cc1ccccc1)NC(=O)[C@H](CO)NC(=O)CNC(=O)[C@H](CCC(=O)O)NC(=O)C(C)(C)NC(=O)[C@@H](N)Cc1c[nH]cn1)[C@@H](C)O)C(C)C)C(=O)N[C@@H](C)C(=O)N[C@@](C)(Cc1ccccc1)C(=O)N[C@H](C(=O)N[C@H](C(=O)N[C@@H](CCCCNC(=O)COCCOCCNC(=O)COCCOCCNC(=O)CCCCCCCCCCCCCCCCC(=O)O)C(=O)NCC(=O)NCC(N)=O)C(C)C)C(C)C [compound 198],≥ 26,≥ 26,1140,1380,890,41,27.9,15,≥ 26,≥ 26,–,–,–,–,–,–,–,–,–,–
CCCCCCCCCCCCCCCC(=O)N[C@@H](CCC(=O)NCCCC[C@H](NC(=O)[C@H](C)NC(=O)[C@@H](NC(=O)[C@](C)(Cc1ccccc1)NC(=O)[C@H](CCC(=O)O)NC(=O)[C@](C)(CCCCN)NC(=O)[C@H](C)NC(=O)[C@H](C)NC(=O)[C@H](CCC(=O)O)NC(=O)CNC(=O)[C@H](CCC(=O)O)NC(=O)[C@H](CC(C)C)NC(=O)[C@](C)(Cc1ccccc1)NC(=O)[C@H](CO)NC(=O)[C@](C)(CO)NC(=O)[C@@H](NC(=O)[C@H](CC(=O)O)NC(=O)[C@H](CO)NC(=O)[C@@H](NC(=O)[C@](C)(Cc1ccccc1)NC(=O)[C@H](CO)NC(=O)CNC(=O)[C@H](CCC(=O)O)NC(=O)C(C)(C)NC(=O)[C@@H](N)Cc1c[nH]cn1)[C@@H](C)O)C(C)C)[C@@H](C)CC)C(=O)N[C@H](C(=O)N[C@H](C(=O)N[C@@](C)(CCCCN)C(=O)NCC(=O)NCC(N)=O)C(C)C)C(C)C)C(=O)O [compound 75],–,–,56,49.7,63,–,1.7,–,–,–,–,–,2,1.4,–,–,≥ 28,≥ 28,≥ 28,≥ 28
